The target in the experiment is T1, Organic anion transporter 1 (hOAT1) (Homo sapiens, UniProt Q4U2R8).
T1 construct: gene SLC22A6
T1 sequence (Q4U2R8 1-563): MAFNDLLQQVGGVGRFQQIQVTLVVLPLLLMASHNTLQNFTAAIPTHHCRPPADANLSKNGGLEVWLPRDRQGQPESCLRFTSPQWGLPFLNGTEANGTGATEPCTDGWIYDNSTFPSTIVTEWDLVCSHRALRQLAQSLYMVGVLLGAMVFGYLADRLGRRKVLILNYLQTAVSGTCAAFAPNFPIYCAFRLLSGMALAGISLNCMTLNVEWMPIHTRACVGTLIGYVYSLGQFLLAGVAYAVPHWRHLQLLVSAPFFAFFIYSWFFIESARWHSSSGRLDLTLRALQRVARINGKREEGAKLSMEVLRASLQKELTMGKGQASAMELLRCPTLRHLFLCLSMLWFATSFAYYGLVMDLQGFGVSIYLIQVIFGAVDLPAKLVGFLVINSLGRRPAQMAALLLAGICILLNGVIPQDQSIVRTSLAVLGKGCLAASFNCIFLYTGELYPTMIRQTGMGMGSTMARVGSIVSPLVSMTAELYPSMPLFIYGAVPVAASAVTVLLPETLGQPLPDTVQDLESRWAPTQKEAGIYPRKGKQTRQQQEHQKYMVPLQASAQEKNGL
Nature of the experiment: competitive inhibition of 6-carboxyfluorescein uptake in hOAT1-overexpressing HEK293 cells. Type of experiment: cell-based.

Data on one compound can be found in paper PMC8102404, “A key role for the transporter OAT1 in systemic lipid metabolism” (The Journal of Biological Chemistry, 2021).

The compound `CCCCCCCCCCCCCCC(=O)O` [Pentadecanoic acid] returned an IC50 of 103 µM.

Usually IC50 stands for the midpoint of a concentration-inhibition curve. Low values mean greater potency in that assay, high ones weaker potency in that assay.
